These results are taken from article PMC8496750, “Identification of the organic anion transporting polypeptides responsible for the hepatic uptake of the major metabolite of epyrifenacil, S‐3100‐CA, in mice” (Pharmacology Research & Perspectives, 2021).

Each structure is given as a SMILES string.

Holding throughout (settings): 10‐min incubation
The target of one data set is T1, mouse Oatp1a4 (Mus musculus, UniProt Q9EP96).
T1 sequence (Q9EP96 1-670): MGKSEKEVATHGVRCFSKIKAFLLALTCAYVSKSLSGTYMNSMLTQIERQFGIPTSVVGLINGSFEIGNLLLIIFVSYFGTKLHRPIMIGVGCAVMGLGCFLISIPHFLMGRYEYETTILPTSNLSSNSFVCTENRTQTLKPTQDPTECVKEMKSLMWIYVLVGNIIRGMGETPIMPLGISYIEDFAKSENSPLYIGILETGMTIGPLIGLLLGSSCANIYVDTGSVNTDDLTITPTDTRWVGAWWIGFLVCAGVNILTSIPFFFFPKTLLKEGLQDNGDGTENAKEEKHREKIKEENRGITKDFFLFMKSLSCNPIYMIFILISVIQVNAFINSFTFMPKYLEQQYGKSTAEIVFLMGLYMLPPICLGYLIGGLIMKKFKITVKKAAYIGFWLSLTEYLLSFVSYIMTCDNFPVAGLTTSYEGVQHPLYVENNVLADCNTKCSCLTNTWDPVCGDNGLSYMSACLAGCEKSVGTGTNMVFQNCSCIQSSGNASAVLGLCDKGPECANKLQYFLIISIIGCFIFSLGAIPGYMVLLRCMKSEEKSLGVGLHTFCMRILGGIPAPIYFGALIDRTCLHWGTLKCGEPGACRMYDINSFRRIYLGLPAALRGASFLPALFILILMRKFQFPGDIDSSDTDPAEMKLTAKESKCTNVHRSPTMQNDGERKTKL
Kind of data set: Uptake assay for radiolabeled substrates, mouse Oatp1a4 expressing 293FT cells. The method, then: (§1) 293FT cells were purchased from Thermo Fisher Scientific, Inc.. The cells were grown in Dulbecco's modified Eagle medium (supplemented with 4.5 g/L glucose and 2 mM L‐glutamine) at 37°C, 5% CO2, and 95% humidity. The cells were passaged 3 times per week by harvesting cells using trypsin and plating at a density of 1.0 × 10^4 cells/cm^2 in a 10 cm cell culture plate for maintenance culture. The 293FT cells were detached using trypsin and re‐seeded at a density of 2.5 × 10^4 cells/cm^2 in BioCoat™ Collagen I 6‐well plates (Corning Inc.) for transfection and then treated with 1.2 μg of plasmid vector and 3.2 μl of Lipofectamine™ 2000 Transfection Reagent (Thermo Fisher Scientific, Inc.) according to the manufacturer's instructions. After a 3‐h treatment, the transfection medium was replaced with a fresh cell culture medium and incubated at 37°C with 95% humidity and 5% CO2 until ready for the assay.
(§2) Transport experiments were conducted approximately 24 h post‐transfection. The experiments were initiated by aspirating culture medium and addition of pre‐warmed radiolabeled substrate solution (final 1.0% of acetonitrile or 0.9% of ethanol in phosphate‐buffered saline (PBS[−])) to each well. After a 10‐min incubation, cells were washed twice with 1 ml of ice‐cold PBS(−) and lysed with 700 μl of 1.0 M NaOH for 3 h or more at room temperature. The lysate was transferred to a 1.5‐ml tube, and neutralized with 350 μl of 2.0 M HCl and 350 μl of 2.0% sodium dodecyl sulfate (SDS) solution. From the lysate, 1.0 ml was transferred to a vial containing 10 ml of Emulsifier Scintillator Plus to measure the radioactivity in the LSC. The protein concentration of the cell lysate was also measured using a Pierce™ BCA Protein Assay Kit (Thermo Fisher Scientific, Inc.), which was used to normalize, according to the cell number, the radioactivity in the cell lysate extract. The protein assay was performed in duplicate. Each sample type was assayed in triplicate wells, and each run was performed twice. When the difference in mean uptake between OATP expressing cells and mock cells was more than 2 times, the OATP was judged to be involved in transportation of the substrate. […] Each sample type was assayed in triplicate wells.

For the next data set, the target named is T2, human OATP1B3 (Homo sapiens, UniProt Q9NPD5).
T2 construct: expressed in transfected cells; host or cells: 293FT cells
T2 sequence (Q9NPD5 1-702): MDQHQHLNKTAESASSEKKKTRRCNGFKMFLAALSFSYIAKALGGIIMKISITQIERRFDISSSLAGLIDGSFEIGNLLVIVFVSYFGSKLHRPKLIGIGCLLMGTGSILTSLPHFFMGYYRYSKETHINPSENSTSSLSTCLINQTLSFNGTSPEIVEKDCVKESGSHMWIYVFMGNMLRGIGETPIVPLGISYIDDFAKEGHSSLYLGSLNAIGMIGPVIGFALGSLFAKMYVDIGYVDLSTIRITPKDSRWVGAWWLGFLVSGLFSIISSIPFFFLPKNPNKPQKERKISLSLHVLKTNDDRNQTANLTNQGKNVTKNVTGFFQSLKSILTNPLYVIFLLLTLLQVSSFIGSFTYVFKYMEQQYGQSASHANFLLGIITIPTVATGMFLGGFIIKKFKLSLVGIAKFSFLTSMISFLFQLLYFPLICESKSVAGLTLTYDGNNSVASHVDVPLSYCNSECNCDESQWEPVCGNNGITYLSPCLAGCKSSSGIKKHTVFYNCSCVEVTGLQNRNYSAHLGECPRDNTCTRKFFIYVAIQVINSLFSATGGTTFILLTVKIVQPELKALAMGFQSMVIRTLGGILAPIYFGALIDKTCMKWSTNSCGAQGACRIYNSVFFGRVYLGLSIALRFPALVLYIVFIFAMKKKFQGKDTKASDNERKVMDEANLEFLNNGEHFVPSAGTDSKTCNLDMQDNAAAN
Description: Uptake assay for radiolabeled substrates, human OATP1B3 expressing 293FT cells. The class given is in vitro ADME. The method, then: as §1, §2

Another data set deals with T3, mouse Oatp2b1 (Mus musculus, UniProt Q8BXB6).
T3 sequence (Q8BXB6 1-683): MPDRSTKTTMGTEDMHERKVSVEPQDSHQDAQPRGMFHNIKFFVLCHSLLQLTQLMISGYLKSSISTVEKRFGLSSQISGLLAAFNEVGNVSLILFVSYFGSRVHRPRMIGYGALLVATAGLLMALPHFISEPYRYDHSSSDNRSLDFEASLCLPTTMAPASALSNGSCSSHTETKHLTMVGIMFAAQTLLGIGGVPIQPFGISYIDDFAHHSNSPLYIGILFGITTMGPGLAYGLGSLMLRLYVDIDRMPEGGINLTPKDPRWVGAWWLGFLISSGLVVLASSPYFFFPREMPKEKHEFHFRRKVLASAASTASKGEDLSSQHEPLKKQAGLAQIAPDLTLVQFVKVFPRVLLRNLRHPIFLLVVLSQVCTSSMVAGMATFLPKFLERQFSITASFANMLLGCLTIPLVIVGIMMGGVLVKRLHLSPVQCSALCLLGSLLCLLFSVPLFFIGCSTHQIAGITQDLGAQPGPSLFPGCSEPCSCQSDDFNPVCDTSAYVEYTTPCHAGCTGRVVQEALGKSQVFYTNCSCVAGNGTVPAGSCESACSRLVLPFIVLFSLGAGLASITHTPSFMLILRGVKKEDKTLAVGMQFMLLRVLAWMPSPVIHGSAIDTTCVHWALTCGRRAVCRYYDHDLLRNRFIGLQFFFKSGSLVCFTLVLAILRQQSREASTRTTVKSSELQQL
Kind of data set: Uptake assay for radiolabeled substrates, mouse Oatp2b1 expressing 293FT cells. The procedure:
as §1, §2

With `C[C@]12CC[C@@H]3c4ccc(OS(=O)(=O)O)cc4CC[C@H]3[C@@H]1CCC2=O` [E3S, Estrone 3‐sulfate], the “Ratio of uptake amount relative to the uptake into mock cells” value is on record as 1.1 at mouse Oatp1a4 (Run_1); 1.1 at mouse Oatp1a4 (Run_2); 2.7 on human OATP1B3 (Run_1); 3.3 on human OATP1B3 (Run_2); 2.9 on mouse Oatp2b1 (Run_1); 3.9 on mouse Oatp2b1 (Run_2).

As for `C[C@]12CC[C@@H]3c4ccc(O)cc4CC[C@H]3[C@@H]1CC[C@@H]2O[C@@H]1O[C@H](C(=O)O)[C@@H](O)[C@H](O)[C@H]1O` [E217βG, Estradiol 17β‐D‐glucuronide], the “Ratio of uptake amount relative to the uptake into mock cells” value was 3.7 on mouse Oatp1a4 (Run_1); 3.3 on mouse Oatp1a4 (Run_2); 19.3 on human OATP1B3 (Run_1); 12.9 at human OATP1B3 (Run_2); 4.1 on mouse Oatp2b1 (Run_1); 2.0 at mouse Oatp2b1 (Run_2).

With `Cn1c(C(F)(F)F)cc(=O)n(-c2cc(Oc3cccnc3OCC(=O)O)c(Cl)cc2F)c1=O` [S‐3100‐CA], the “Ratio of uptake amount relative to the uptake into mock cells” value on mouse Oatp1a4 (Run_1) is on record as 8.1; at mouse Oatp1a4 (Run_2) it was 4.2; at human OATP1B3 (Run_1), 3.1; on human OATP1B3 (Run_2), 5.1; on mouse Oatp2b1 (Run_1), 2.4; on mouse Oatp2b1 (Run_2) it was 4.0.
